Activity calls are given as the source filed them.
How the values were obtained:
[1] = molecular target: T1, 5-hydroxytryptamine receptor 5A (Homo sapiens, UniProt P47898); assay: Displacement of [3H]-5-CT from human 5-HT5A receptor incubated for 2 hr by radioligand binding assay
Homo sapiens = organism: Homo sapiens; assay: Binding affinity to human 5-HT5A receptor W117A mutant ssessed as fold reduction in binding by competition binding assay relative to control; conditions: filed as agonist
[2] = molecular target: Melatonin receptor type 1A (Homo sapiens) (UniProt P48039); assay: Agonist activity at MTNR1A (unknown origin) transfected in HTLA cells assessed as beta-arrestin 2 recruitment at 10 uM incubated for 18 to 20 hrs by luciferin based Tango assay; assay type: functional, cell-based; conditions: time 18-20 hrs
Chain of Melatonin receptor type 1A (Homo sapiens) (P48039 whole entry): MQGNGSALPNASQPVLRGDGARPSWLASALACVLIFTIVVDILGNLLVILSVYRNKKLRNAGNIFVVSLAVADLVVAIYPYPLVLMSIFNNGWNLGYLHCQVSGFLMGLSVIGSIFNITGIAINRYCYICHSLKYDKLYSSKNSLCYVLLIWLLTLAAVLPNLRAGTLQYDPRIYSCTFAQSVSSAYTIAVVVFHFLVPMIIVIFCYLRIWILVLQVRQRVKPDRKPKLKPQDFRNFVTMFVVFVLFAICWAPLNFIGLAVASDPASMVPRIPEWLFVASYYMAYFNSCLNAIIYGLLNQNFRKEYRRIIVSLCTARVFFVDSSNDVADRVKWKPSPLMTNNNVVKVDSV

[3] = molecular target: 5-hydroxytryptamine receptor 1D (Homo sapiens, UniProt P28221); assay: Binding affinity to 5-HT1DR (unknown origin) assessed as inhibition constant
Chain of 5-hydroxytryptamine receptor 1D (P28221 whole entry): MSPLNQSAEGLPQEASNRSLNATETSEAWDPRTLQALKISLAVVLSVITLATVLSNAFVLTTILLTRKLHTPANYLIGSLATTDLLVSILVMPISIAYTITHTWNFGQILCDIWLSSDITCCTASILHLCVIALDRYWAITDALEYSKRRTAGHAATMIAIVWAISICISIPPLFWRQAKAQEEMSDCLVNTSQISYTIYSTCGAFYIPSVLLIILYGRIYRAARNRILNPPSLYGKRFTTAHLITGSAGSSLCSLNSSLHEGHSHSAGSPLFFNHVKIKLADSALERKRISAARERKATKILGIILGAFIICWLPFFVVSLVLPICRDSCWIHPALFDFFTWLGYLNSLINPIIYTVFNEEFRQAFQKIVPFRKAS

[4] = molecular target: T2, 5-hydroxytryptamine receptor 3A (Homo sapiens) (UniProt P46098); assay: (§1) Binding affinity to 5-HT3 (unknown origin) assessed as inhibition constant
T2 sequence (whole entry): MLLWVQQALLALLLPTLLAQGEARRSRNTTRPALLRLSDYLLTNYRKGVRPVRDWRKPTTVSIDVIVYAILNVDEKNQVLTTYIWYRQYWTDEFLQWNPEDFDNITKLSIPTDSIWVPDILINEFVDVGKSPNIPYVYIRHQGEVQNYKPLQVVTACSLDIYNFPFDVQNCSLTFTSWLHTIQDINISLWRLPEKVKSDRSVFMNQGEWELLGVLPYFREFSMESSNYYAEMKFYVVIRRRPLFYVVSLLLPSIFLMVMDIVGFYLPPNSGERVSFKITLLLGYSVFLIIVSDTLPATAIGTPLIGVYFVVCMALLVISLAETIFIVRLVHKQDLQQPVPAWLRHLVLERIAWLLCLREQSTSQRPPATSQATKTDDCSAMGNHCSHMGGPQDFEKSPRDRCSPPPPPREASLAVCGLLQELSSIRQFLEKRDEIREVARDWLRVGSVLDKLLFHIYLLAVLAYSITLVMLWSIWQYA

[5] = molecular target: 5-hydroxytryptamine receptor 2B (Homo sapiens, UniProt P41595); assay: Binding affinity to 5-HT2BR (unknown origin) assessed as inhibition constant
Chain of 5-hydroxytryptamine receptor 2B (P41595 whole entry): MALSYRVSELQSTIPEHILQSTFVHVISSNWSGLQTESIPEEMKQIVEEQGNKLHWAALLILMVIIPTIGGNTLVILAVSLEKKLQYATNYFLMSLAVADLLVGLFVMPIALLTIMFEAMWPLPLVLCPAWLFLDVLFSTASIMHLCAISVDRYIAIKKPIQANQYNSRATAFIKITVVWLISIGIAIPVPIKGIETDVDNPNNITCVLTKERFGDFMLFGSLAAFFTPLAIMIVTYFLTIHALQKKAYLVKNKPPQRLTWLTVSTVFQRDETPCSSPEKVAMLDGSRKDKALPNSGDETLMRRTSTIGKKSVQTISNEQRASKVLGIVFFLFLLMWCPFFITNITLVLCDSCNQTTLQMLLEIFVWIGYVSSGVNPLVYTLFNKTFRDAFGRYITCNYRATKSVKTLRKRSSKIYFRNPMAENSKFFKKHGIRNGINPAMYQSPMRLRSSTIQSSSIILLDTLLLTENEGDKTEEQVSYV

[6] = molecular target: 5-hydroxytryptamine receptor 2A (Homo sapiens, UniProt P28223); assay: Binding affinity to 5-HT2AR (unknown origin) assessed as inhibition constant
Chain of 5-hydroxytryptamine receptor 2A (P28223 whole entry): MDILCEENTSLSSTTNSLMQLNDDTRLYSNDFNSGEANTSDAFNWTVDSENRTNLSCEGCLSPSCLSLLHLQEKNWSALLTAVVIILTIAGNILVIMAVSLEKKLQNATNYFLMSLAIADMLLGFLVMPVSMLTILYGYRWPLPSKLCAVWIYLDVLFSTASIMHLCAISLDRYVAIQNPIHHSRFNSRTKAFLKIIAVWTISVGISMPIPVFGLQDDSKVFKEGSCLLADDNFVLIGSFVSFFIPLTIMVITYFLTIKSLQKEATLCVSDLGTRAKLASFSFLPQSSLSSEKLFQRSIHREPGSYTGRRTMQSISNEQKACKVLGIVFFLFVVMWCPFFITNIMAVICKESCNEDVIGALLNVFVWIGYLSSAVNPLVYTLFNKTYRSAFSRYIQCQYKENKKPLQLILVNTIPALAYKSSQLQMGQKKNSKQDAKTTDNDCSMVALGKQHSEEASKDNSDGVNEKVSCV

[7] = molecular target: T3, Alpha-2A adrenergic receptor (Homo sapiens) (UniProt P08913); assay: Agonist activity at ADRA2A (unknown origin) transfected in HTLA cells assessed as beta-arrestin 2 recruitment at 10 uM incubated for 18 to 20 hrs by luciferin based Tango assay; assay type: functional, cell-based; conditions: time 18-20 hrs
T3 sequence (whole entry): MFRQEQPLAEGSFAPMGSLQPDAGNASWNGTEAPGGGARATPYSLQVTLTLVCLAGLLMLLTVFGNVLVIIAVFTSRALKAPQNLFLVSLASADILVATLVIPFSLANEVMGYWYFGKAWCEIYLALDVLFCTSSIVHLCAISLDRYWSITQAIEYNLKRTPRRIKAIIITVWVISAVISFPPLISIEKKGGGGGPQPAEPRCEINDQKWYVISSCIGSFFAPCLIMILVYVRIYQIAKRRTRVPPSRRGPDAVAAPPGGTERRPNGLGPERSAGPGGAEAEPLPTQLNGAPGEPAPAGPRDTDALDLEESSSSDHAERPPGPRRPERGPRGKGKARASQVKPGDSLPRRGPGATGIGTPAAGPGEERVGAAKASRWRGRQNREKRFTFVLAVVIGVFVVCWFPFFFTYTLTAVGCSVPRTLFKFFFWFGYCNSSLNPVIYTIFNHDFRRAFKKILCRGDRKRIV

Mus musculus [8] = assay: Antiallodynic activity in IT dosed […] mouse model of spared nerve injury-induced neuropathic pain assessed as increase in paw withdrawal mechanical threshold measured after 30 mins by von Frey test; assay type: functional, organism-based
[9] = molecular target: T4, 5-hydroxytryptamine receptor 2C (Homo sapiens) (UniProt P28335); assay: (§2) Binding affinity to 5-HT2CR (unknown origin) assessed as inhibition constant
T4 sequence (whole entry): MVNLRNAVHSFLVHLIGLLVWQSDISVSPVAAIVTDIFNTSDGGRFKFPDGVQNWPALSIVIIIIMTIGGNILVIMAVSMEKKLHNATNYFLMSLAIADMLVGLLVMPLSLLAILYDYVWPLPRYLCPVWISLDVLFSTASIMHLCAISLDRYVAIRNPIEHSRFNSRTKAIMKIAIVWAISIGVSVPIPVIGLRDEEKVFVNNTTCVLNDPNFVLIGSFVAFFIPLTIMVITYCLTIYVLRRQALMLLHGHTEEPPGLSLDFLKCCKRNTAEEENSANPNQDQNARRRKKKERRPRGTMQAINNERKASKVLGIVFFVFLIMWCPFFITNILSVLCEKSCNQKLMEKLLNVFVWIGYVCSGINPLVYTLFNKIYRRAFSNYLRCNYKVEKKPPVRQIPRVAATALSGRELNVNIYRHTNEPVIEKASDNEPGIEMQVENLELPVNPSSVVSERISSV

[10] = molecular target: T5, 5-hydroxytryptamine receptor 1A (Homo sapiens) (UniProt P08908); assay: (§3) Binding affinity to 5-HT1AR (unknown origin) assessed as inhibition constant
T5 sequence (whole entry): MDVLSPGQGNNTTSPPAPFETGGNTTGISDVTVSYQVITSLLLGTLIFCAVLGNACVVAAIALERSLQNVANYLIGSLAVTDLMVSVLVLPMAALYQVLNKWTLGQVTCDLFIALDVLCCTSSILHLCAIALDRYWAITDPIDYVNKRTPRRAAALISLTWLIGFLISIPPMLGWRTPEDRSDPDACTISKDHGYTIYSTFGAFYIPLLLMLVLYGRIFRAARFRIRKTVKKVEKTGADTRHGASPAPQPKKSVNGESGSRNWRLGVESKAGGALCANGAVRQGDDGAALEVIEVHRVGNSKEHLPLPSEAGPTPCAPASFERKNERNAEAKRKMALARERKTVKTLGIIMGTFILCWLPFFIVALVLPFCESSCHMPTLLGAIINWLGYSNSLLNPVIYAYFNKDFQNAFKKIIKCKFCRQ

[11] = molecular target: 5-hydroxytryptamine receptor 1B (Homo sapiens, UniProt P28222); assay: Binding affinity to 5-HT1BR (unknown origin) assessed as inhibition constant
Chain of 5-hydroxytryptamine receptor 1B (P28222 whole entry): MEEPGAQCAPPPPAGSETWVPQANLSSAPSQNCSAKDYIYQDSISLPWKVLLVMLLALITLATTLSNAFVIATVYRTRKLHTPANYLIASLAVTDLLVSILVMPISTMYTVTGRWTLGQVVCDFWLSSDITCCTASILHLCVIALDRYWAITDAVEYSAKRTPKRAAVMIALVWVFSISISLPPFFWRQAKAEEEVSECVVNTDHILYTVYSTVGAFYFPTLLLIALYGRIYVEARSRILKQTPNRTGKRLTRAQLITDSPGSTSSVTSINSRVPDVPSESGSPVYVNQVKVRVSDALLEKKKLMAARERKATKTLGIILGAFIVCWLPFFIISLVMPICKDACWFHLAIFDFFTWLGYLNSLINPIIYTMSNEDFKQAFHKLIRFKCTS

[12] = molecular target: T1, 5-hydroxytryptamine receptor 5A; assay: Displacement of [3H]-5-CT from human 5-HT5A receptor at 1 uM incubated for 2 hr by radioligand binding assay
[13] = molecular target: T4, 5-hydroxytryptamine receptor 2C (Homo sapiens); assay: Agonist activity at 5-HT2CR (unknown origin) transfected in HTLA cells assessed as beta-arrestin 2 recruitment at 10 uM incubated for 18 to 20 hrs by luciferin based Tango assay; assay type: functional, cell-based; conditions: filed as agonist, time 18-20 hrs
Mus musculus [14] = assay: Sedative activity in IT dosed […] mouse assessed as effect on locomotor activity measured after 60 mins by rotarod test; assay type: toxicity, organism-based; conditions: in vivo, icv_or_intrathecal, 1 h
[15] = molecular target: D(2) dopamine receptor (Homo sapiens) (UniProt P14416); assay: Agonist activity at DRD2 (unknown origin) transfected in HTLA cells assessed as beta-arrestin 2 recruitment at 10 uM incubated for 18 to 20 hrs by luciferin based Tango assay; assay type: functional, cell-based; conditions: filed as agonist, time 18-20 hrs
Chain of D(2) dopamine receptor (Homo sapiens) (P14416 whole entry): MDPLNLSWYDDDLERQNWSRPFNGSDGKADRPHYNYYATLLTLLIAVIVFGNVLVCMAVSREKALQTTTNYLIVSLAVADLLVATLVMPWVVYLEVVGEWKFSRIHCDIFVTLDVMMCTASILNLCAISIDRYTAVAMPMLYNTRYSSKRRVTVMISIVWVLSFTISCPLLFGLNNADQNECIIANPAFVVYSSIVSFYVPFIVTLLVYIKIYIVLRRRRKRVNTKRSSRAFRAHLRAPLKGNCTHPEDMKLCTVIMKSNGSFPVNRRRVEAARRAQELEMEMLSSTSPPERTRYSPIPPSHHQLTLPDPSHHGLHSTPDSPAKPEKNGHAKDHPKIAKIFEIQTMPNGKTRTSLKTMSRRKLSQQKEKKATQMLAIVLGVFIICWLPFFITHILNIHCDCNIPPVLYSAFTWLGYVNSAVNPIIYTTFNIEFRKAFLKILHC

[16] = molecular target: 5-hydroxytryptamine receptor 7 (Homo sapiens) (UniProt P34969); assay: Binding affinity to 5-HT7AR (unknown origin)
Chain of 5-hydroxytryptamine receptor 7 (Homo sapiens) (P34969 whole entry): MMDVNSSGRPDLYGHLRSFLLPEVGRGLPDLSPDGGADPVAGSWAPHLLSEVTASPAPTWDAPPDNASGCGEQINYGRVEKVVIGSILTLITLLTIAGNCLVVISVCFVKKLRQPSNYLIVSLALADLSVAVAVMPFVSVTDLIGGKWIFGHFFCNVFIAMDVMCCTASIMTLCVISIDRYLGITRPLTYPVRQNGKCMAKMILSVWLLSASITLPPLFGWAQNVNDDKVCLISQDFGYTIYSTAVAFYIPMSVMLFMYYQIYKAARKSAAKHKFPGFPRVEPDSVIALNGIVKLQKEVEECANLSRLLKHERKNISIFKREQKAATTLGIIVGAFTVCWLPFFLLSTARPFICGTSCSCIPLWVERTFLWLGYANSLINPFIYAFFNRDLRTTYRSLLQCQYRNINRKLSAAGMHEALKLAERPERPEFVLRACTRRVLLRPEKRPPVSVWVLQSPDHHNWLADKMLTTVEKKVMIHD

[17] = molecular target: T1, 5-hydroxytryptamine receptor 5A; assay: Agonist activity at human 5-HT5A receptor transfected in HTLA cells assessed as increase in beta-arrestin 2 recruitment by measuring maximal efficacy at 10 uM incubated for 18 to 20 hrs by bright-Glo reagent based Tango assay relative to control; assay type: functional, cell-based; conditions: time 18-20 hrs
Mus musculus [18] = assay: Effect on baseline mechanical thresholds in IT dosed […] mouse measured after 30 mins by von Frey test; assay type: functional, organism-based
[19] = molecular target: T1, 5-hydroxytryptamine receptor 5A; assay: Agonist activity at human 5-HT5A receptor transfected in HTLA cells assessed as increase in beta-arrestin 2 recruitment at 10 uM incubated for 18 to 20 hrs by bright-Glo reagent based Tango assay; assay type: functional, cell-based
[20] = molecular target: T1, 5-hydroxytryptamine receptor 5A; assay: Displacement of [3H]-5-CT from human 5-HT5A receptor at 100 uM incubated for 2 hr by radioligand binding assay
[21] = molecular target: T1, 5-hydroxytryptamine receptor 5A; assay: Antagonist activity at human 5-HT5AR assessed as […] of [35S]GTPgammaS binding at 100 uM incubated for 3 to 5 hrs; assay type: functional; conditions: filed as antagonist, time 3-5 hrs
[22] = molecular target: T1, 5-hydroxytryptamine receptor 5A; assay: Displacement of [3H]-5-CT from human 5-HT5A receptor at 32 uM incubated for 2 hr by radioligand binding assay
[23] = molecular target: Atypical chemokine receptor 3 (Homo sapiens) (UniProt P25106); assay: Agonist activity at CXCR7 (unknown origin) transfected in HTLA cells assessed as beta-arrestin 2 recruitment at 10 uM incubated for 18 to 20 hrs by luciferin based Tango assay; assay type: functional, cell-based; conditions: time 18-20 hrs
Chain of Atypical chemokine receptor 3 (Homo sapiens) (P25106 whole entry): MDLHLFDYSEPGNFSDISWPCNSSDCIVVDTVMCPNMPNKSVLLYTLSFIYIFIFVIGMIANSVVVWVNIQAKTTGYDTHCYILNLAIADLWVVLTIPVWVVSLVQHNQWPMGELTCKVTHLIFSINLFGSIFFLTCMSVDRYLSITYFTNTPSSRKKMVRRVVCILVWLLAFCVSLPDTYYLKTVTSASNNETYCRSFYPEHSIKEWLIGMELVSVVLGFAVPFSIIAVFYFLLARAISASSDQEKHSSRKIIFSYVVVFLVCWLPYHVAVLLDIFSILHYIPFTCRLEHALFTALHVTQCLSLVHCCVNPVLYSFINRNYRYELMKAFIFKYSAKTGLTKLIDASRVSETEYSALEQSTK

HEK-293T = assay: Cytotoxicity against HEK293T cells assessed as reduction in cell viability at high concentration incubated for overnight; assay type: toxicity, cell-based; conditions: human
[24] = molecular target: T6, 5-hydroxytryptamine receptor 3A (Homo sapiens, UniProt P46098); assay: as §1
T6 sequence (P46098 whole entry): T2 sequence (whole entry)

[25] = molecular target: T1, 5-hydroxytryptamine receptor 5A; assay: Antagonist activity at human 5-HT5AR assessed as inhibition of beta-arrestin 2 recruitment by measuring reduction in RLuc8-based luminescence incubated for 20 to 30 mins in absence of agonist by luminescence based analysis; assay type: functional; conditions: filed as antagonist, time 20-30 min
[26] = molecular target: T7, 5-hydroxytryptamine receptor 2C (Homo sapiens, UniProt P28335); assay: as §2
T7 sequence (P28335 whole entry): T4 sequence (whole entry)

[27] = molecular target: T8, 5-hydroxytryptamine receptor 1A (Homo sapiens, UniProt P08908); assay: as §3
T8 sequence (P08908 whole entry): T5 sequence (whole entry)

T1 sequence (P47898 whole entry): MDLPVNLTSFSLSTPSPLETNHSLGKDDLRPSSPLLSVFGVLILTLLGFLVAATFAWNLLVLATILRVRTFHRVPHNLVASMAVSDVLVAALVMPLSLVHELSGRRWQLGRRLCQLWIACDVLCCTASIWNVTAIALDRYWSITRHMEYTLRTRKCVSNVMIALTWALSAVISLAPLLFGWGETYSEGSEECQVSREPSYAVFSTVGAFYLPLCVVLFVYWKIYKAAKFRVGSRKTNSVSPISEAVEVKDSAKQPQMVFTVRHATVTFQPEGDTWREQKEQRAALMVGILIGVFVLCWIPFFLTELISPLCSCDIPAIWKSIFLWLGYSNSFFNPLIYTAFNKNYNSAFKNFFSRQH

## CN(C)S(=O)(=O)C1(CNCc2ccc(Cl)c3cccnc23)CC1
[1]
  Ki: 107 nM
Homo sapiens
  fold change (FC): 3.9

## CN(C)S(=O)(=O)CCNCc1cccc2ncccc12
[2]
  Activity: inactive
[3]
  Activity: inactive
[4]
  Activity: inactive
[5]
  Activity: inactive
[6]
  Activity: inactive
[7]
  Activity: inactive
Mus musculus [8]
  Activity: inactive
[9]
  Activity: inactive
[10]
  Activity: inactive
[11]
  Activity: inactive

## O=S1(=O)CC[C@@H](CNCc2cccc3cccnc23)C1
[12]
  Ki: 570 nM

## CN(C)S(=O)(=O)CCNCc1ccc(F)c2cccnc12
[1]
  Ki: 271 nM

## CS(=O)(=O)C1(CNCc2cccc3cccnc23)CC1
[13]
  Activity: Active
Mus musculus [14]
  Activity: Non-Toxic
[15]
  Activity: Active
[16]
  Activity: inactive
[17]
  Emax: 18.3%
[5]
  Activity: inactive
Mus musculus [18]
  Activity: inactive
[19]
  EC50: 355 nM
Mus musculus [8]
  Activity: Active
Homo sapiens
  fold change (FC): 25
[10]
  Activity: inactive

## CN(C)S(=O)(=O)CCNCc1ccc(Cl)c2cccnc12
[12]
  Ki: 208 nM

## O=C(CCCNCc1ccc(Cl)c2cccnc12)NC1CC1
[20]
  Ki: 11.5 µM
[21]
  Activity: Active

## CN1CC[C@H](CNCc2ccc(Cl)c3cccnc23)CC1=O
[22]
  Ki: 4 µM

## CCS(=O)(=O)CCCNCc1ccc(Cl)c2cccnc12
[1]
  Ki: > 10000 nM
Mus musculus [14]
  Activity: Non-Toxic
[16]
  Activity: inactive
[23]
  Activity: inactive
[5]
  Activity: inactive
Mus musculus [18]
  Activity: inactive
Mus musculus [8]
  Activity: Active
[10]
  Activity: inactive

## CC(C)(C)c1ccc2c(c1)CN(C[C@@H](O)COC1CCOCC1)CC2
[20]
  Ki: 21.4 µM
[21]
  Activity: Active

## CN(C)S(=O)(=O)CCNCc1cccc2cccnc12
[1]
  Ki: 229 nM

## O=S1(=O)CCC[C@@H](CNCc2cccc3cccnc23)C1
[12]
  Ki: 705 nM

## CS(=O)(=O)CCCNCc1ccc(Cl)c2cccnc12
Mus musculus [14]
  Activity: Non-Toxic
Mus musculus [18]
  Activity: inactive
Mus musculus [8]
  Activity: Active

## Clc1ccc(CNCC[C@@H]2CCOC2)c2ncccc12
[22]
  Ki: 6.7 µM

## CS(=O)(=O)C1(CNCc2ccc(Cl)c3cccnc23)CC1
[17]
  Emax: 10.5%
[19]
  EC50: 3630 nM
Mus musculus [8]
  Activity: inactive

## Clc1ccc(CNC[C@H]2CCn3ccnc3C2)c2ncccc12
[22]
  Ki: 1.5 µM

## O=C1C[C@H](CNCc2ccc(Cl)c3cccnc23)CN1C1CC1
[22]
  Ki: 6.7 µM

## N#CC1(c2ccccc2)CCC(NCCc2nnc3ccccn23)CC1 (stereo not drawn)
[20]
  Ki: 28.8 µM
[21]
  Activity: Active

## Cc1cnn(C[C@H](C)NCc2cccc(OCc3ccccn3)c2)c1
[20]
  Ki: 20.9 µM
[21]
  Activity: Active

## Clc1ccc(CNCCc2cccnc2)c2ncccc12
[12]
  Ki: 2400 nM

## O=S1(=O)CCC[C@@H](CNCc2ccc(Cl)c3cccnc23)C1
[22]
  Ki: 3.1 µM

## CN(C)CCN(Cc1ccc(-c2ccc(CNCCc3ccccc3)cc2)cc1)C(=O)CCC1CCCC1
[3]
  Ki: < 2000 nM
HEK-293T
  Activity: Non-Toxic
[24]
  Ki: < 2000 nM
[5]
  Ki: < 2000 nM
[6]
  Ki: < 2000 nM
[25]
  Activity: Dose-Dependent Effect
[26]
  Ki: < 2000 nM
[27]
  Ki: < 2000 nM
[11]
  Ki: < 2000 nM
[21]
  Activity: Active

## Cc1cnc(NCc2ccccc2-n2ccnc2)nc1N(C)C
[20]
  Ki: 12.9 µM
[21]
  Activity: Active

— ChEMBL document CHEMBL5046284, “Structure-Based Design of a Chemical Probe Set for the 5-HT5A Serotonin Receptor” (J Med Chem, 2022)
